Test results published in US8969554B2, “6-acyl-1,2,4-triazine-3,5-dione derivative and herbicides” (Kumiai Chemical Industry Co., Ltd., priority 2010, dated 2015).

Columns and labels:
Type in all cases: in vivo
[1] = system: Echinochloa oryzicola; assay: Herbicidal activity by paddy field soil treatment (Test Example 1); parameters: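 index 0 to 10 in 10% steps of herbicidal effect with 10 meaning complete death and 0 below 10%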; conditions: 1000 g of effective component per hectare, evaluated on day 21 after the treatment, criteria of Table 72
Method in brief: (§1)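 Seeds were sown in puddled paddy soil in pots flooded to 3 cm water depth; the next day a water-diluted wettable powder was applied to the water surface at 1000 g active ingredient/ha. Plants were grown in a greenhouse and herbicidal effect scored by graded criteria on day 21 after treatment.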

[2] = system: Scirpus juncoides Rocxb.; assay: as above; parameters: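 index 0 to 10 in 10% steps of herbicidal effect with 10 meaning complete death and 0 below 10%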; conditions: applied on water surface, 1000 g of effective component per hectare, day 21 after the treatment
Method in brief: as §1

[3] = system: Monochoria vaginalis; assay: as above; parameters: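 index 0 to 10 in 10% steps of herbicidal effect with 10 meaning complete death and 0 below 10%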; conditions: 1000 g of effective component per hectare, evaluated on day 21 after the treatment, criteria of Table 72
Method in brief: as §1

[4] = system: Setaria viridis; assay: Herbicidal activity by field foliage treatment (Test example 3); conditions: 1000 g effective component per hectare, day 14 after the treatment;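 further: index 0 to 10 in 10% steps of herbicidal effect with 10 meaning complete death and 0 below 10%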
Experimental: Test example 3 Test for Determining Herbicidal Activity by Field Foliage Treatment A 80 cm^2 wide plastic pot was filled with a field soil and seeds of each of Indian millet and A. retroflexus were sowed and then incubated for 2 weeks in a green house. The wettable powder produced with reference to the Formulation example 1 was diluted water, and applied from the air to entire body of the plant as foliage treatment by using a small sprayer in an amount of 1000 liters per hectare so that the effective component is 1000 g per hectare. After that, the plants were cultivated in a greenhouse, and on day 14 after the treatment, evaluation was made by the criteria described in Table 72 for determining the herbicidal effects.

[5] = system: Indian millet; assay: Herbicidal activity by field soil treatment (Test example 2); parameters: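 index 0 to 10 in 10% steps of herbicidal effect with 10 meaning complete death and 0 below 10%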; conditions: 1000 g effective component per hectare, day 21 after the treatment
Method in brief: (§2)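 Seeds were sown in field soil in 80 cm^2 pots and covered with soil. A water-diluted wettable powder was then sprayed onto the soil surface at 1000 liters per hectare, delivering 1000 g active ingredient per hectare. Plants grew in a greenhouse, and herbicidal effect was scored against set criteria 21 days after treatment.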

[6] = system: A. retroflexus; assay: as above; parameters: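 index 0 to 10 in 10% steps of herbicidal effect with 10 meaning complete death and 0 below 10%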; conditions: 1000 g effective component per hectare, day 21 after the treatment
Method in brief: as §2

[7] = system: Echinochloa crus-galli; assay: as above; parameters: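 index 0 to 10 in 10% steps of herbicidal effect with 10 meaning complete death and 0 below 10%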; conditions: 1000 g effective component per hectare, day 21 after the treatment
Method in brief: as §2

[8] = system: Echinochloa crus-galli; assay: Herbicidal activity by field foliage treatment (Test example 3); parameters: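 index 0 to 10 in 10% steps of herbicidal effect with 10 meaning complete death and 0 below 10%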; conditions: 1000 g effective component per hectare, day 14 after the treatment
Method in brief: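 Potted field-soil plants grown 2 weeks in a greenhouse were sprayed over the whole foliage with diluted wettable powder at 1000 L/ha, delivering 1000 g active ingredient per hectare. Herbicidal effect scored by visual criteria 14 days after treatment.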

[9] = system: Indian millet; assay: as above; parameters: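 index 0 to 10 in 10% steps of herbicidal effect with 10 meaning complete death and 0 below 10%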; conditions: 1000 g effective component per hectare, day 14 after the treatment
Method in brief: (§3)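 Plants were grown from seed in field soil in a greenhouse for 2 weeks, then sprayed over the whole foliage with a water-diluted wettable powder at 1000 L/ha spray volume, delivering 1000 g active ingredient per hectare. Herbicidal effect was scored on day 14 after treatment.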

[10] = system: A. retroflexus; assay: as above; parameters: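 index 0 to 10 in 10% steps of herbicidal effect with 10 meaning complete death and 0 below 10%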; conditions: 1000 g effective component per hectare, day 14 after the treatment
Method in brief: as §3

Row | SMILES | Herbicidal effects index number, Echinochloa oryzicola [1] | herbicidal effect index, S. juncoides Rocxb. [2] | Herbicidal effects index number, Monochoria vaginalis [3] | herbicidal effect index, Setaria viridis [4] | herbicidal effect index, Abutilon theophrasti [5] | herbicidal effect index, Amaranthus retroflexus [6] | herbicidal effect index, Echinochloa crus-galli [7] | herbicidal effect index, Echinochloa crus-galli [8] | herbicidal effect index, Abutilon theophrasti [9] | herbicidal effect index, Amaranthus retroflexus [10]
1 | CON=C(C)Cn1c(=O)c(C(=O)C2=C(O)CCCC2=O)nn(C)c1=O [I-471] | 10 | 10 | 10 | 10 | 10 | 10 | 7 | 9 | 10 | 10
2 | Cc1ccc(Cl)cc1-n1c(=O)c(C(=O)C2=C(O)CCCC2=O)nn(C)c1=O [I-138] | 10 | 10 | 10 | 8 | 9 | 10 | 9 | 8 | 9 | 10
3 | CC(Cn1c(=O)c(C(=O)C2=C(O)CCCC2=O)nn(C)c1=O)=NOC(C)C [I-479] | 10 | 10 | 10 | 7 | 10 | 10 | 9 | 9 | 9 | 10
4 | CC(C)N(c1ccccc1)n1c(=O)c(C(=O)O)nn(C)c1=O [V-369] | 10 | 10 | 10 | 7 | 7 | 7 | 7 | 9 | 8 | 9
5 | CCn1c(=O)c(C(=O)C2=C(O)CCCC2=O)nn(-c2ccccn2)c1=O [I-275] | 9 | 8 | 10 | 8 | 10 | 10 | 8 | 9 | 9 | 9
6 | Cn1nc(C(=O)C2=C(O)CCCC2=O)c(=O)n(-c2ccc(F)cn2)c1=O [I-184] | 10 | 10 | 10 | 8 | 10 | 10 | 8 | 10 | 9 | 10
7 | Cn1c(=O)c(C(=O)C2=C(O)CCCC2=O)nn(-c2ccccn2)c1=O [I-274] | 8 | 4 | 8 | 8 | 8 | 7 | 7 | 9 | 8 | 9
8 | CC(CCn1c(=O)c(C(=O)C2=C(O)CCCC2=O)nn(C)c1=O)=C(F)F [I-27] | 10 | 10 | 10 | 6 | 10 | 10 | 10 | 9 | 9 | 9
9 | Cc1ccc(-n2c(=O)c(C(=O)C3=C(O)CCCC3=O)nn(C)c2=O)c(C)c1 [I-90] | 9 | 10 | 10 | 7 | 10 | 10 | 8 | 8 | 9 | 10
10 | Cn1nc(C(=O)C2=C(O)CCCC2=O)c(=O)n(-c2ccc(F)cc2F)c1=O [I-78] | 10 | 10 | 10 | 10 | 10 | 10 | 10 | 10 | 10 | 10
11 | Cn1nc(C(=O)C2=C(O)CCCC2=O)c(=O)n(-c2cc(F)c(F)c(F)c2)c1=O [I-302] | 10 | 10 | 10 | 10 | 10 | 10 | 7 | 10 | 10 | 10
12 | CON=C(C)Cn1c(=O)c(C(=O)O)nn(C)c1=O [V-365] | 10 | 10 | 10 | 10 | 10 | 10 | 7 | 9 | 10 | 10
13 | Cn1nc(C(=O)C2=C(O)CCCC2=O)c(=O)n(-c2ccc(Cl)cn2)c1=O [I-185] | 8 | 9 | 9 | 9 | 10 | 10 | 9 | 10 | 9 | 10
14 | Cn1nc(C(=O)C2=C(O)CCCC2=O)c(=O)n(-c2ccc(C(F)(F)F)cn2)c1=O [I-187] | 10 | 10 | 10 | 8 | 9 | 10 | 7 | 8 | 9 | 10
15 | Cn1nc(C(=O)C2=C(O)CCCC2=O)c(=O)n(-c2ccsc2)c1=O [I-199] | 9 | 9 | 8 | 8 | 10 | 10 | 9 | 10 | 9 | 9
16 | COc1ccccc1-n1c(=O)c(C(=O)C2=C(O)CCCC2=O)nn(C)c1=O [I-60] | 10 | 10 | 10 | 9 | 10 | 10 | 10 | 10 | 10 | 10
